Each structure is given as a SMILES string. Read-outs that look alike come from different tables or passages of the source.

Data set [1] deals with weeds. In words: Pre-emergence test, weeds. Particulars: soil sprayed, rated after three weeks. Type of data set: in vivo. The method, then: Pre-emergence Test Solvent: 5 parts by weight of acetone Emulsifier: 1 part by weight of alkylaryl polyglycol ether To produce a suitable preparation of active compound, 1 part by weight of active compound is mixed with the stated amount of solvent, the stated amount of emulsifier is added and the concentrate is diluted with water to the desired concentration. Seeds of the test plants are sown in normal soil. After about 24 hours, the soil is sprayed with the preparation of active compound such that the particuiar amount of active compound desired is applied per unit area. The concentration of the spray liquor is chosen so that the particular amount of active compound desired is applied in 1000 litres of water per hectare. After three weeks, the degree of damage to the plants is rated in % damage in comparison to the development of the untreated control. The figures denote: 0%=no effect (like untreated control) 100%=total destruction

Data set [2] is described as follows: logP by HPLC, reverse-phase column (C 18), acidic range. Type of data set: physicochemical. Here is the method: Temperature: 43° C. (a) Mobile phases for the determination in the acidic range: 0.1% aqueous phosphoric acid, acetonitrile; linear gradient from 10% acetonitrile to 90% acetonitrile—the corresponding data in Table 1 are labelled^a). […] Temperature: 43° C. (a) Mobile phases for the determination in the acidic range: 0.1% aqueous phosphoric acid, acetonitrile; linear gradient from 10% acetonitrile to 90% acetonitrile—the corresponding data in Table 2 are labelled^a).

Data set [3] relates to crop plants, such as, for example, maize. In words: Pre-emergence test, crop plant tolerance. Type of data set: in vivo. Particulars: rated after three weeks. The text has this:
(§1) Solvent: 5 parts by weight of acetone
(§2) Emulsifier: 1 part by weight of alkylaryl polyglycol ether
Seeds of the test plants are sown in normal soil.
(§3) After three weeks, the degree of damage to the plants is rated in % damage in comparison to the development of the untreated control.

The test system of data set [4] is weeds. In words: Post-emergence test, weeds. Type of data set: in vivo. Particulars: plants of 5 to 15 cm sprayed, rated after three weeks. Here is the method: as §1, §2
To produce a suitable preparation of active compound, 1 part by weight of active compound is mixed with the stated amount of solvent, the stated amount of emulsifier is added and the concentrate is diluted with water to the desired concentration.
Test plants of a height of 5 to 15 cm are sprayed with the preparation of active compound such that the particular amounts of active compound desired are applied per unit area. The concentration of the spray liquor is chosen so that the particular amounts of active compound are applied in 1000 l of water/ha.
as §3
0%=no effect (like untreated control)

The mark [5] stands for this setting: a) acidic range: 0.1% aqueous phosphoric acid, acetonitrile, 43° C., Table 1.

The term chromatographic logP denotes lipophilicity estimated from chromatographic retention. Low values mean a more hydrophilic compound, high ones a more lipophilic compound. In the case of `CCOc1nn(Cc2cc(C(F)(F)F)ccc2C(=O)C(C#N)C(=O)C2CC2)c(=O)n1C1CC1` (stereo not drawn) [Example 1, 3-cyclopropyl-2-{2-[4-(cyclopropyl-3-ethoxy-5-oxo-4,5-dihydro-1H-1,2,4-triazol-1-yl)-methyl]4-trifluoromethyl-benzoyl}-3-oxo-propanenitrile], the activity against weeds result with weeds [1] and with weeds [4] was “strong activity” in each case. The molecule also registered a chromatographic logP in data set [2] (reverse-phase HPLC column (C 18), determined at pH=2) of 3.35. Also, the “tolerated by crop plants” value in data set [3] was “tolerated well”.
Take `CSc1nn(Cc2cc(C(F)(F)F)ccc2C(=O)C(C#N)C(=O)C2CC2)c(=O)n1C1CC1` (stereo not drawn) [Example 2]: the activity against weeds entry in the data set on weeds [1] and in the data set on weeds [4] was “strong activity” throughout. Moreover, the logP entry in data set [2] (setting [5]) was “(IA) logP = 2.92^a)”. The “tolerated by crop plants” value in data set [3] is “tolerated well”.
With `CCOc1nn(Cc2cc(C(F)(F)F)ccc2C(=O)C(C#N)C(=O)C2CC2)c(=O)n1C` (stereo not drawn) [Example 3], the activity against weeds result in the data set on weeds [1] and with weeds [4] was “strong activity” in each case. In addition, the logP entry in data set [2] (setting [5]) was “(IA) logP = 3.03^a)”. The “tolerated by crop plants” value in data set [3] is “tolerated well”.
Regarding `CSc1nn(Cc2cc(Br)ccc2C(=O)C(C#N)C(=O)C2CC2)c(=O)n1C` (stereo not drawn) [Example 5], the activity against weeds entry with weeds [1] and with weeds [4] was “strong activity” each time. Besides, in data set [2] (setting [5]), the logP result is reported as “(IA) logP = 2.83^a)”. The “tolerated by crop plants” value in data set [3] was “tolerated well”.
In the case of `CCOc1nn(Cc2cc(Br)ccc2C(=O)C(C#N)C(=O)C2CC2)c(=O)n1C` (stereo not drawn) [Example 6], the activity against weeds entry with weeds [1] and in the data set with weeds [4] was “strong activity” in each case. Moreover, in data set [2] (setting [5]), the logP entry was “(IA) logP = 2.94^a)”. Moreover, in data set [3], the “tolerated by crop plants” value is given as “tolerated well”.
On to `CN(C)c1nn(Cc2cc(F)ccc2C(=O)C(C#N)C(=O)C2CC2)c(=O)n1C` (stereo not drawn) [Example 7], for which, in data set [2], the logP result is recorded as “(IA) logP = 2.28^a)”.
Same read-out and setting: the result for `COc1nn(Cc2cc(F)ccc2C(=O)C(C#N)C(=O)C2CC2)c(=O)n1C1CC1` (stereo not drawn) [Example 8] reads “(IA) logP = 2.56^a)”; that for `CSc1nn(Cc2cc(S(C)(=O)=O)ccc2C(=O)C(C#N)C(=O)C2CC2)c(=O)n1C` (stereo not drawn) [Example 9], “(IA) logP = 1.74^a)”.
Same read-out and setting: as for `Cc1nn(Cc2cc(C(F)(F)F)ccc2C(=O)C(C#N)C(=O)C2CC2)c(=O)n1C` (stereo not drawn) [Example 10], the entry is “(IA) logP = 2.35^a)”.
`CCOc1nn(Cc2cc(C(F)(F)F)ccc2C(=O)O)c(=O)n1C` [III-2, 5-ethoxy-4-methyl-2-(2-carboxy-5-trifluoromethyl-benzyl)-2,4-dihydro-3H-1,2,4-triazol-3-one] returned a chromatographic logP in data set [2] (reverse-phase HPLC column (C 18); a) acidic range, starting material of formula (III)) of 2.18.
As a reminder, the melting point is the temperature of the solid-liquid transition. `Cn1c(C(F)(F)F)nn(Cc2c(Cl)ccc(C(=O)O)c2Cl)c1=O` [III-3, 4-methyl-5-trifluoromethyl-2-(2,6-dichloro-3-carboxy-benzyl)-2,4-dihydro-3H-1,2,4-triazol-3-one] came in with a melting point of 207 °C.
`CCOn1c(CC)nn(Cc2cc(C(F)(F)F)ccc2C(=O)c2c(C(=O)OC)noc2C2CC2)c1=O` [IV-1, (5-cyclopropyl-3-methoxycarbonyl-isoxazol-4-yl)-[2-(4-ethoxy-3-ethyl-5-oxo-4,5-dihydro-[1,2,4]-triazol-1-yl-methyl)-4-trifluoromethyl-phenyl]-methanone] came in with a chromatographic logP in data set [2] (reverse-phase HPLC column (C 18), determined at pH=2.3, starting material of formula (IV)) of 3.56.

(Values after patent publication US6762152B1, “Substituted benzoyl ketones, methods for producing them and their use as herbicides” (Bayer Aktiengesellschaft, priority 1999, dated 2004).)
